Experimental data reported in patent US20150246902A1, “SUBSTITUED BENZOFURAN COMPOUNDS AND METHODS OF USE THEREOF FOR THE TREATMENT OF VIRAL DISEASES” (priority 2011, published 2015).

Tests used:
[1] = system: HCV replicon genotype 1b; experiment: microbe, parasite or virus in culture; format: cell-based; settings: Hepatitis C virus, 96 h, HCV genotype 1b replicon cells, 96 hours incubation, NS3/4A ELISA readout
[2] = system: HCV replicon genotype 1a; experiment: microbe, parasite or virus in culture; format: cell-based; settings: Hepatitis C virus, 96 h, HCV genotype 1a replicon cells, 96 hours incubation, NS3/4A ELISA readout

## CNC(=O)c1c(-c2ccc(F)cc2)oc2cc(N(C)S(C)(=O)=O)c(-c3cc(F)c4nc(C)n(-c5cc(F)cc(F)c5)c4c3)cc12 [Compound 34]
[1]
  IC50: 4.3 nM
[2]
  IC50: 24.8 nM

## CNC(=O)c1c(-c2ccc(F)cc2)oc2cc(N(C)S(C)(=O)=O)c(-c3ccc4nc(-c5ccc(F)cc5)cn4n3)cc12 [Compound 113]
[1]
  IC50: 14.9 nM
[2]
  IC50: 186 nM

## CNC(=O)c1c(-c2ccc(F)cc2)oc2cc(N(C)S(C)(=O)=O)c(-c3ccc4[nH]nc(-c5ccc(Cl)cc5)c4c3)cc12 [Compound 76]
[1]
  IC50: 5.8 nM
[2]
  IC50: 6.8 nM

## CNC(=O)c1c(-c2ccc(F)cc2)oc2cc(N(C)S(C)(=O)=O)c(-c3ccc4ccn(-c5cccc(F)c5)c4c3)cc12 [Compound 60]
[1]
  IC50: 4.4 nM
[2]
  IC50: 45.4 nM

## CNC(=O)c1c(-c2ccc(F)cc2)oc2cc(N(C)S(C)(=O)=O)c(-c3cc(OC)c4nc(N)n(-c5cc(F)cc(F)c5)c4c3)cc12 [Compound 78, 5-(2-amino-1-(3,5-difluorophenyl)-4-methoxy-1H-benzo[d]imidazol-6-yl)-2-(4-fluorophenyl)-N-methyl-6-(N-methylmethylsulfonamido)benzofuran-3-carboxamide]
[1]
  IC50: 5.3 nM
[2]
  IC50: 19 nM

## CNC(=O)c1c(-c2ccc(F)cc2)oc2cc(N(C)S(C)(=O)=O)c(-c3ccn4cc(-c5ccccc5)nc4c3)cc12 [Compound 89]
[1]
  IC50: 2.7 nM
[2]
  IC50: 7 nM

## CNC(=O)c1c(-c2ccc(F)cc2)oc2cc(N(C)S(C)(=O)=O)c(-c3ccc4cnn(-c5ccc(C#N)cc5)c4c3)cc12 [Compound 108]
[1]
  IC50: 12.3 nM
[2]
  IC50: 27.6 nM

## CNC(=O)c1c(-c2ccc(F)cc2)oc2cc(N(C)S(C)(=O)=O)c(-c3ncc4ncn(-c5ccc(OC(F)(F)F)cc5)c4n3)cc12 [Compound 39, 2-(4-fluorophenyl)-N-methyl-6-(N-methylmethylsulfonamido)-5-(9-(4-(trifluoromethoxy)phenyl)-9H-purin-2-yl)benzofuran-3-carboxamide]
[1]
  IC50: 82.4 nM
[2]
  IC50: 1820 nM

## CNC(=O)c1c(-c2ccc(F)cc2)oc2cc(N(C)S(C)(=O)=O)c(-c3ccc4ncn(-c5ccc(S(C)(=O)=O)cc5)c4c3)cc12 [Compound 13]
[1]
  IC50: 3.8 nM
[2]
  IC50: 18.2 nM

## CNC(=O)c1c(-c2ccc(F)cc2)oc2cc(N(C)S(C)(=O)=O)c(-c3cc(F)c4ncn(-c5ccc(F)cc5)c4c3)cc12 [Compound 28]
[1]
  IC50: 3.3 nM
[2]
  IC50: 4.2 nM

## CNC(=O)c1c(-c2ccc(F)cc2)oc2cc(N(C)S(C)(=O)=O)c(-c3cccc4nc(-c5ccccc5)oc34)cc12 [Compound 85]
[1]
  IC50: 235 nM
[2]
  IC50: 460 nM

## CNC(=O)c1c(-c2ccc(F)cc2)oc2cc(N(C)S(C)(=O)=O)c(-c3ccc4ncn(-c5ccc(OC)cc5)c4c3)cc12 [Compound 1, 2-(4-fluorophenyl)-5-(1-(4-methoxyphenyl)-1H-benzo[d]imidazol-6-yl)-N-methyl-6-(N-methylmethylsulfonamido)benzofuran-3-carboxamide]
[1]
  IC50: 4.6 nM
[2]
  IC50: 16.5 nM

## CNC(=O)c1c(-c2ccc(F)cc2)oc2cc(N(C)S(C)(=O)=O)c(-c3cc(-c4cc5ccccc5[nH]4)c4nc(C)cn4c3)cc12 [Compound 99, 5-(8-(1H-indol-2-yl)-2-methylimidazo[1,2-a]pyridin-6-yl)-2-(4-fluorophenyl)-N-methyl-6-(N-methylmethylsulfonamido)benzofuran-3-carboxamide]
[1]
  IC50: 5.2 nM
[2]
  IC50: 3.1 nM

## CNC(=O)c1c(-c2ccc(F)cc2)oc2cc(N(C)S(C)(=O)=O)c(-c3ccc4ncn(-c5ccc(C(F)(F)F)cc5)c4c3)cc12 [Compound 7]
[1]
  IC50: 2.2 nM
[2]
  IC50: 2.6 nM

## CNC(=O)c1c(-c2ccc(F)cc2)oc2cc(N(C)S(C)(=O)=O)c(-c3cc(F)c4[nH]c(=O)n(-c5cc(F)cc(F)c5)c4c3)cc12 [Compound 81]
[1]
  IC50: 5.2 nM
[2]
  IC50: 30.3 nM

## CNC(=O)c1c(-c2ccc(F)cc2)oc2cc(N(C)S(C)(=O)=O)c(-c3cn4c(-c5ccc(Cl)cc5)cnc4cn3)cc12 [Compound 93]
[1]
  IC50: 7.9 nM
[2]
  IC50: 47.9 nM

## CNC(=O)c1c(-c2ccc(F)cc2)oc2cc(N(C)S(C)(=O)=O)c(-c3ccc4nc(-c5ccccc5)cn4c3)cc12 [Compound 88, 2-(4-fluorophenyl)-N-methyl-6-(N-methylmethylsulfonamido)-5-(2-phenylimidazo[1,2-a]pyridin-6-yl)benzofuran-3-carboxamide]
[1]
  IC50: 7 nM
[2]
  IC50: 50.1 nM

## CNC(=O)c1c(-c2ccc(F)cc2)oc2cc(N(C)S(C)(=O)=O)c(-c3cc(OC)c4nc(C)n(-c5cc(F)cc(F)c5)c4c3)cc12 [Compound 37]
[1]
  IC50: 4.3 nM
[2]
  IC50: 6.8 nM

## CNC(=O)c1c(-c2ccc(F)cc2)oc2cc(N(C)S(C)(=O)=O)c(-c3ccc4oc(-c5ccc(F)cc5)nc4c3)cc12 [Compound 87]
[1]
  IC50: 10.8 nM
[2]
  IC50: 51.5 nM

## CNC(=O)c1c(-c2ccc(F)cc2)oc2cc(N(C)S(C)(=O)=O)c(-c3ccc4ncn(-c5ccc(C#N)cc5)c4c3)cc12 [Compound 5]
[1]
  IC50: 0.8 nM
[2]
  IC50: 2.1 nM

## CNC(=O)c1c(-c2ccc(F)cc2)oc2cc(N(C)S(C)(=O)=O)c(-c3ccc4[nH]c(-c5ccccc5)cc4c3)cc12 [Compound 103, 2-(4-fluorophenyl)-N-methyl-6-(N-methylmethylsulfonamido)-5-(2-phenyl-1H-indol-5-yl)benzofuran-3-carboxamide]
[1]
  IC50: 101 nM
[2]
  IC50: 1100 nM

## CNC(=O)c1c(-c2ccc(F)cc2)oc2cc(N(C)S(C)(=O)=O)c(-c3ccc4ncn(-c5ccc(F)cc5)c4n3)cc12 [Compound 44]
[1]
  IC50: 7.7 nM
[2]
  IC50: 56.5 nM

## CNC(=O)c1c(-c2ccc(F)cc2)oc2cc(N(C)S(C)(=O)=O)c(-c3ncc4ncn(-c5ccc(C(F)(F)F)cc5)c4n3)cc12 [Compound 41]
[1]
  IC50: 6.7 nM
[2]
  IC50: 119 nM

## CNC(=O)c1c(-c2ccc(F)cc2)oc2cc(N(C)S(C)(=O)=O)c(-c3ccc4ccn(Cc5ccc(C(F)(F)F)cc5)c4c3)cc12 [Compound 67, 2-(4-fluorophenyl)-N-methyl-6-(N-methylmethylsulfonamido)-5-(1-(4-(trifluoromethyl)benzyl)-1H-indol-6-yl)benzofuran-3-carboxamide]
[1]
  IC50: 49.8 nM
[2]
  IC50: 132 nM
